From US12410160B2 (Gilead Sciences, Inc., priority 2021, dated 2025) come the findings set out here.

Where two headings read alike, the source gives them in different places.

The test system of one assay is HepG2 cells. Put plainly: F1P Cell-Based Assay (EC50), 13C6-fructose-1-phosphate in HepG2 cells (cell culture medium or 50% human plasma). Particulars: Homo sapiens. The protocol: F1P Cell-Based Assay (EC50)
Compounds were serially diluted (1:3) in DMSO. The LabCyte ECHO Acoustic dispenser system was used to pre-spot the assay plates (Greiner, Catalog #781091) with 400 nL (200-fold final dilution in 80 μL assay volume) of compound. 25,000 cells/well HepG2 cells (ATCC Catalog #HB-8065) were plated in a 40 μL volume/well in DMEM medium with 4.5 g/L glucose, 1× Penicillin-Streptomycin-Glutamine, and 10% FBS, using a BioTEK dispenser in a biological hood and incubated overnight at 37° C., 5% CO2, 90% humidity. 40 μL/well serum free assay medium (for F1P assay in cell culture medium), or 40 μL/well 100% human plasma (for F1P assay in 50% human plasma) were then added to the plates on the following day, and incubated for 1 hour at 37° C., 5% CO2, 90% humidity. ^13C6-labelled fructose (Sigma, Catalog #587621) in sterile PBS was added to the plates at a final concentration of 5 mM. The plates were incubated for 2 hours at 37° C., 5% CO2, 90% humidity. The assay was quenched by washing the cells with sterile PBS and adding 60 μL/well of 80% (v/v) methanol, 2 mM ammonium acetate and 2.5 μM Crotonyl-CoA, using a BioTEK washer-dispenser system. The plates were then sealed and stored in the −80° C. freezer until ready for RapidFire readout. ^13C6-fructose-1-phosphate in individual wells was quantified using the Agilent RapidFire High-Throughput MS system in negative mode using a […]. Mobile Phase 1 consisted of 20 mM ammonium acetate with 0.05% acetic acid in 100% methanol. Mobile phase 2 consisted of 5 mM octylamine in water (pH adjusted to 5 using acetic acid). F1P signals in individual wells were normalized by crotonyl CoA internal control.

Another assay deals with human KHK-A (Homo sapiens (Human), UniProt P50053). Put plainly: KHK Biochemical Assay (IC50), ADP-Glo, KHK-A. Particulars: ADP-Glo; average of at least two separate assays. An outline of the steps:
(§1)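 Luminescent ADP-Glo read-out of ADP made by His-tagged KHK (BL21 (DE3) expression, Ni-NTA). Enzyme and compound sat together 30 min before ATP/fructose addition, then reacted 4 h at RT in Hepes pH 7.4 buffer with KCl, MgCl2, Triton-X. Quench 1 h, detection 1 h.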

For the next assay, the target named is human KHK-C (Homo sapiens (Human), UniProt P50053). Put plainly: KHK Biochemical Assay (IC50), ADP-Glo, KHK-C. Particulars: ADP-Glo; average of at least two separate assays. The method, boiled down: as §1
Chain of human KHK-C (P50053 whole entry): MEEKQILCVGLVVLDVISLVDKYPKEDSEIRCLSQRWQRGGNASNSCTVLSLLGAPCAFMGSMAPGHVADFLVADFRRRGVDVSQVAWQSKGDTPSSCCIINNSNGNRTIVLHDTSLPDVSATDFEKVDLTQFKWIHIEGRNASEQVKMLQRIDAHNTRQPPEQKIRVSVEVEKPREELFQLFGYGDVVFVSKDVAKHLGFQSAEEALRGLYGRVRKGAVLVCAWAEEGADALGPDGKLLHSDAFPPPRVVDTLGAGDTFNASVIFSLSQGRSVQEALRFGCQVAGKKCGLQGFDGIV
The mark [1] stands for this setting: HepG2, HepG2 cells, 50% human plasma, read-out: F1P 50% HP EC50.
The mark [2] stands for this setting: HepG2, read-out: F1P 10% FBS EC50, HepG2 cells, cell culture medium (10% FBS).

Chain of human KHK-A (P50053 other isoform, or with tags, fused parts or gaps): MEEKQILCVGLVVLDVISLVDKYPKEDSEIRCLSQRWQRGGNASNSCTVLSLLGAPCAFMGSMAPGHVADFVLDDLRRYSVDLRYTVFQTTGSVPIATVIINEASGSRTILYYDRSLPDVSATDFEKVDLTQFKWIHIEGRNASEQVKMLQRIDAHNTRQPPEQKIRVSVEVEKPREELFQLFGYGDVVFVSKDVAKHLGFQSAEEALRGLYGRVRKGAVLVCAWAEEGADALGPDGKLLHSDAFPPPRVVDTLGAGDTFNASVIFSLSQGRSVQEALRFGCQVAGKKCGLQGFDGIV

With `C[C@H]1[C@H](O)CN1c1nc(-c2ccc(OC(F)F)c(S(C)(=N)=O)c2)c2c(n1)C(F)(F)CC2` (some centres unmarked) [Example 532], the values for the concentration for a half-maximal effect (EC50) in the assay on HepG2 cells (setting [1]) and in the assay on HepG2 cells (setting [2]) were 55.1 nM and 5.1 nM, respectively.

As to `C[C@H]1[C@H](O)CN1c1nc(-c2ccc3c(c2)OC(C(F)F)CNC3=O)c2c(n1)C(F)(F)CC2` (stereo partly drawn) [Example 597, 8-(7,7-difluoro-2-((2S,3R)-3-hydroxy-2-methylazetidin-1-yl)-6,7-dihydro-5H-cyclopenta[d]pyrimidin-4-yl)-2-(difluoromethyl)-3,4-dihydrobenzo[f][1,4]oxazepin-5(2H)-one], the EC50 turned out to be 34.4 nM with HepG2 cells (setting [1]) and 16 nM in the assay on HepG2 cells (setting [2]).

Take `C[C@H]1[C@H](O)CN1c1nc(-c2ccc3c(c2)C(NS(C)(=O)=O)CO3)c2c(n1)C(F)(F)CC2` (some centres unmarked) [Example 613]: the concentration giving a half-maximal response (EC50) in the assay on HepG2 cells (setting [1]) came to 26 nM; with HepG2 cells (setting [2]), 14.5 nM.

As for `C[C@H]1[C@H](O)CN1c1nc(-c2cccc(-n3cnnc3)c2)c2c(n1)C(F)(F)CC2` [Example 619, (2S,3R)-1-(4-(3-(4H-1,2,4-triazol-4-yl)phenyl)-7,7-difluoro-6,7-dihydro-5H-cyclopenta[d]pyrimidin-2-yl)-2-methylazetidin-3-ol], the figures for the concentration for a half-maximal effect (EC50) in the assay on HepG2 cells (setting [1]) and in the assay with HepG2 cells (setting [2]) were more than 500 nM and 77.3 nM, respectively.

As to `CCS(=O)(=O)N[C@H]1COc2cc(-c3nc(N4C[C@@H](O)[C@@H]4C)nc4c3CCC4(F)F)ccc21` [Example 624, N—((R)-6-(7,7-difluoro-2-((2S,3R)-3-hydroxy-2-methylazetidin-1-yl)-6,7-dihydro-5H-cyclopenta[d]pyrimidin-4-yl)-2,3-dihydrobenzofuran-3-yl)ethanesulfonamide], the values for the EC50 in the assay on HepG2 cells (setting [1]) and in the assay with HepG2 cells (setting [2]) were 282 nM and 129 nM, respectively.

`C[C@H]1CCN1c1nc(-c2cn(C3CNC3)nn2)c2c(n1)C(F)(F)CC2` [Example 653, 4-[1-(azetidin-3-yl)triazol-4-yl]-7,7-difluoro-2-[(2S)-2-methylazetidin-1-yl]-5,6-dihydrocyclopenta[d]pyrimidine]: the concentration giving a half-maximal response (EC50) in the assay on HepG2 cells (setting [1]) amounted to 10.3 nM; in the assay on HepG2 cells (setting [2]) it was 11 nM.

For the compound `C[C@H]1CCN1c1nc(-c2cccc(-n3ccnn3)c2)c2c(n1)C(F)(F)CC2` [Example 654, 7,7-difluoro-2-[(2S)-2-methylazetidin-1-yl]-4-[3-(triazol-1-yl)phenyl]-5,6-dihydrocyclopenta[d]pyrimidine], the 50% effective concentration (EC50) with HepG2 cells (setting [1]) is 214 nM; with HepG2 cells (setting [2]), 129 nM.

As for `C[C@H]1CCN1c1nc(-c2ccc(-n3ccnn3)cc2)c2c(n1)C(F)(F)CC2` [Example 655, 7,7-difluoro-2-[(2S)-2-methylazetidin-1-yl]-4-[4-(triazol-1-yl)phenyl]-5,6-dihydrocyclopenta[d]pyrimidine], the results for the half-maximal effective concentration (EC50) in the assay with HepG2 cells (setting [1]) and with HepG2 cells (setting [2]) were 236 nM and 46.2 nM, respectively.

Regarding `N#C[C@H]1CCN1c1nc(-c2ccc([C@@H](N)C(F)F)cc2)c2c(n1)C(F)(F)CC2` [Example 660, (2R)-1-[4-[4-[(1R)-1-amino-2,2-difluoro-ethyl]phenyl]-7,7-difluoro-5,6-dihydrocyclopenta[d]pyrimidin-2-yl]azetidine-2-carbonitrile], the EC50 came out at 26.7 nM in the assay with HepG2 cells (setting [1]) and 19.8 nM in the assay with HepG2 cells (setting [2]).

Consider `C[C@H]1[C@H](O)CN1c1nc(-c2ccc3c(c2)CCS3(=N)=O)c2c(n1)C(F)(F)CC2` (stereo partly drawn) [Example 664, (2S,3R)-1-[7,7-difluoro-4-(1-imino-1-oxo-2,3-dihydrobenzothiophen-5-yl)-5,6-dihydrocyclopenta[d]pyrimidin-2-yl]-2-methyl-azetidin-3-ol], for which the EC50 was found to be 80.2 nM in the assay on HepG2 cells (HepG2, read-out: F1P 10% FBS EC50) and 78.6 nM with HepG2 cells (HepG2, read-out: F1P 50% HP EC50).

For the compound `C[C@H]1[C@H](O)CN1c1nc(-c2ccc3c(c2)S(=O)(=O)CC3NS(C)(=O)=O)c2c(n1)C(F)(F)CC2` (stereo partly drawn) [Example 665, N-[6-[7,7-difluoro-2-[(2S,3R)-3-hydroxy-2-methyl-azetidin-1-yl]-5,6-dihydrocyclopenta[d]pyrimidin-4-yl]-1,1-dioxo-2,3-dihydrobenzothiophen-3-yl]methanesulfonamide], the results for the EC50 with HepG2 cells (setting [1]) and with HepG2 cells (setting [2]) were 88.4 nM and 52.7 nM, respectively.

Regarding `C[C@H]1[C@H](O)CN1c1nc(-c2cccc(N=S3(=O)CCOCC3)c2)c2c(n1)C(F)(F)CC2` [Example 673, (2S,3R)-1-[7,7-difluoro-4-[3-[(4-oxo-1,4-oxathian-4-ylidene)amino]phenyl]-5,6-dihydrocyclopenta[d]pyrimidin-2-yl]-2-methyl-azetidin-3-ol], the results for the EC50 with HepG2 cells (setting [1]) and with HepG2 cells (setting [2]) were 75.8 nM and 20.3 nM, respectively.

Consider `C[C@H]1[C@H](O)CN1c1nc(-c2ccc3c(c2)S(C)(=O)=NC3)c2c(n1)C(F)(F)CC2` (stereo partly drawn) [Example 805, (2S,3R)-1-[7,7-difluoro-4-(1-methyl-1-oxo-3H-1,2-benzothiazol-6-yl)-5,6-dihydrocyclopenta[d]pyrimidin-2-yl]-2-methyl-azetidin-3-ol], for which the EC50 was 74.1 nM in the assay on HepG2 cells (setting [1]) and 67.9 nM in the assay with HepG2 cells (setting [2]).

Take `COC(=O)N[C@H]1COc2cc(-c3nc(N4C[C@@H](O)[C@@H]4C)nc4c3CCC4(F)F)ccc21` [Example 814, Methyl N-[(3R)-6-[7,7-difluoro-2-[(2S,3R)-3-hydroxy-2-methyl-azetidin-1-yl]-5,6-dihydrocyclopenta[d]pyrimidin-4-yl]-2,3-dihydrobenzofuran-3-yl]carbamate]: the concentration for a half-maximal effect (EC50) in the assay with HepG2 cells (setting [1]) amounted to 155 nM; in the assay with HepG2 cells (setting [2]), 91.6 nM.

In the case of `C[C@H]1CCN1c1nc2c(c(-c3ccc4c(c3)CCCC4NS(C)(=O)=O)n1)CCC2` (stereo partly drawn) [Example 890, N-(6-(2-((S)-2-methylazetidin-1-yl)-6,7-dihydro-5H-cyclopenta[d]pyrimidin-4-yl)-1,2,3,4-tetrahydronaphthalen-1-yl)methanesulfonamide], the figures for the IC50 on human KHK-A and against human KHK-C were 141 nM and 60.8 nM, respectively.

Turning to `CC1Cc2cc(-c3nc(N4CC[C@@H]4C)nc4c3CCC4)ccc2C1NS(C)(=O)=O` (stereo partly drawn) [Example 891, N-(2-methyl-5-(2-((S)-2-methylazetidin-1-yl)-6,7-dihydro-5H-cyclopenta[d]pyrimidin-4-yl)-2,3-dihydro-1H-inden-1-yl)methanesulfonamide], the figures for the half-maximal inhibitory concentration (IC50) at human KHK-A and against human KHK-C were 167 nM and 59.5 nM, respectively.

`COC1Cc2cc(-c3nc(N4CC[C@@H]4C)nc4c3CCC4)ccc2C1NS(C)(=O)=O` (stereo partly drawn) [Example 892, N-(2-methoxy-5-(2-((S)-2-methylazetidin-1-yl)-6,7-dihydro-5H-cyclopenta[d]pyrimidin-4-yl)-2,3-dihydro-1H-inden-1-yl)methanesulfonamide]: the concentration for half-maximal inhibition (IC50) was determined as 330 nM on human KHK-A and 99.5 nM at human KHK-C.

`C[C@H]1CCN1c1nc2c(c(-c3ccc4c(c3)CC(C(F)(F)F)C4NS(C)(=O)=O)n1)CCC2` (stereo partly drawn) [Example 893, N-(5-(2-((S)-2-methylazetidin-1-yl)-6,7-dihydro-5H-cyclopenta[d]pyrimidin-4-yl)-2-(trifluoromethyl)-2,3-dihydro-1H-inden-1-yl)methanesulfonamide]: the 50% inhibitory concentration (IC50) on human KHK-A is 1780 nM; on human KHK-C it was 733 nM.

Take `CC1CC(NS(C)(=O)=O)c2ccc(-c3nc(N4CC[C@@H]4C)nc4c3CCC4)cc21` (stereo partly drawn) [Example 894, N-(3-methyl-5-(2-((S)-2-methylazetidin-1-yl)-6,7-dihydro-5H-cyclopenta[d]pyrimidin-4-yl)-2,3-dihydro-1H-inden-1-yl)methanesulfonamide]: the half-inhibitory concentration (IC50) against human KHK-A turned out to be 106 nM; against human KHK-C it was 20.5 nM.

For `Cc1cc(-c2nc(N3CC[C@@H]3C)nc3c2CCC3)cc2c1C(NS(C)(=O)=O)CC2` (stereo partly drawn) [Example 895, N-(7-methyl-5-(2-((S)-2-methylazetidin-1-yl)-6,7-dihydro-5H-cyclopenta[d]pyrimidin-4-yl)-2,3-dihydro-1H-inden-1-yl)methanesulfonamide], the IC50 turned out to be 175 nM on human KHK-A and 38.1 nM against human KHK-C.

Turning to `NC1(c2ccc(-c3nc(N4CC[C@@H]4C(F)(F)F)nc4c3CCC4(F)F)s2)COC1` [Example 896, (R)-3-(5-(7,7-difluoro-2-(2-(trifluoromethyl)azetidin-1-yl)-6,7-dihydro-5H-cyclopenta[d]pyrimidin-4-yl)thiophen-2-yl)oxetan-3-amine], the half-inhibitory concentration (IC50) came to 2.1 nM at human KHK-A and 1.7 nM on human KHK-C.

As for “(S)-4-(2-(2-methylazetidin-1-yl)-6,7-dihydro-5H-cyclopenta[d]pyrimidin-4-yl)pyridine-2-sulfonamide [Example 224]”, the IC50 amounted to 155 nM on human KHK-A and 114 nM against human KHK-C.

Usually EC50 stands for the concentration at which the effect is half-maximal. The term IC50 denotes the concentration at which inhibition is half-maximal. Read a high IC50 as weaker potency in that assay.
